One data set addresses T1, 5-HT2B receptor (Homo sapiens, UniProt P41595).
T1 construct: expressed in transfected cells; host or cells: HEK293, stably transfected
The data set can be described thus: cell-based. The data set is classed as cell-based. As to conditions: Ca2+ flux; for Emax: HEK293, agonist, HEK293, max dose, read-out: 5-HT2B % Act @ Max Dose; for EC50: agonist, HEK293. Summed up:
(§1)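 FLIPR Tetra fluorescence read-out of calcium flux after compound addition. Receptor-expressing stable lines were used (HEK293 for 2A/2B; CHO with Gα15 for 1A), dye-loaded with Fluo-4 Direct and 2.5 mM final probenecid, 50 min at 37 °C.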
On the technique in general: Calcium flux is commonly read through the fluorescence of an indicator in the cells.

The next data set has as its target T2, 5-HT2C receptor (Homo sapiens, UniProt P28335).
T2 sequence (P28335 33-458): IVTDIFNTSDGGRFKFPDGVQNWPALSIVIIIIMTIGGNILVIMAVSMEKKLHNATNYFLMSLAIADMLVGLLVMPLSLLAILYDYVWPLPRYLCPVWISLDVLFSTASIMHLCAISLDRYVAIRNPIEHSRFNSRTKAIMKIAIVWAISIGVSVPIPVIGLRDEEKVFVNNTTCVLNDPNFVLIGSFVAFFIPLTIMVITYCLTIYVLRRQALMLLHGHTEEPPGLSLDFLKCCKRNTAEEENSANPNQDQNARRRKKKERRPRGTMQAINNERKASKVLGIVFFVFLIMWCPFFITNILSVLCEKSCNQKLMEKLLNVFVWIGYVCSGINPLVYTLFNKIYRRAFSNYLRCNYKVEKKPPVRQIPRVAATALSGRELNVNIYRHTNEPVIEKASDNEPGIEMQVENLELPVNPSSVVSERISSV
Nature of the data set: cell-based. The settings on record: agonist, Ca2+ flux, Eurofins DiscoverX protocol; for Emax: max dose, read-out: 5-HT2C % Act @ Max Dose; for EC50: read-out: 5-HT2C EC50.

For another data set, the target named is T3, 5-HT1A receptor (Homo sapiens, UniProt P08908).
T3 construct: expressed in transfected cells; host or cells: CHO cells, stably transfected
T3 sequence (P08908 1-422): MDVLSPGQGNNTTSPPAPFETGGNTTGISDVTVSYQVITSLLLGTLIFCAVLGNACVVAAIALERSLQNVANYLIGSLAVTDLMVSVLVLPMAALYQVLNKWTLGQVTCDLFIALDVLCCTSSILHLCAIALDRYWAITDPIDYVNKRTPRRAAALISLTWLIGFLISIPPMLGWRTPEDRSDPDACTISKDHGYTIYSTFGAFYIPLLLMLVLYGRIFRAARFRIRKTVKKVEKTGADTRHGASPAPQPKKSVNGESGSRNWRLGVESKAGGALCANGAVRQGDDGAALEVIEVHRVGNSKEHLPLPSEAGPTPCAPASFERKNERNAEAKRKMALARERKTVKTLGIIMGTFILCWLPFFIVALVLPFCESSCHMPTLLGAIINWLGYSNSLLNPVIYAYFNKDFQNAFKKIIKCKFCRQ
The data set can be described thus: cell-based. The settings on record: agonist, Ca2+ flux; for Emax: CHO, CHO cells with Gα15, max dose, read-out: 5-HT1A % Act @ Max Dose; for EC50: CHO cells with Gα15. Summed up: as §1

Data set [1] has as its target T4, 5-HT2A receptor (Homo sapiens, UniProt P28223). The data set can be described thus: cell-based. The data set is classed as cell-based. As to conditions: agonist, beta-arrestin recruitment, max dose; read-out: 5-HT2A Arrestin % Act @ Max Dose. The method in brief: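 Agonist activity expressed as percent of maximal control ligand signal after vehicle subtraction, from chemiluminescence (RLU). Cells carry ProLink-tagged 5-HT2A plus β-arrestin fused to β-gal deletion mutant; ligand-driven arrestin binding restores β-galactosidase activity (PathHunter). Cells pre-incubated at 37° C.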
(Arrestin recruitment assays detect the binding of arrestin to an activated receptor.)

Data set [2] in a line: in vitro. The data set is classed as in vitro ADME, human. The settings on record: HLM 0.50 mg/mL, NADPH 1 mM, 1 μM compound, pH 7.4, 37° C., 60 min; for microsomal CLint / half-life: human, microsomes; for microsomal CLint: read-out: Intrinsic clearance (Clint); for half-life: read-out: half-life (t1/2).
A short description of data set [3]: in vitro. The data set is classed as in vitro ADME, mouse. As to conditions: MLM (male CD-1) 0.50 mg/mL, NADPH 1 mM, 1 μM compound, pH 7.4, 37° C., 60 min; for microsomal CLint / half-life: mouse, microsomes; for microsomal CLint: read-out: Intrinsic clearance (Clint); for half-life: read-out: half-life (t1/2). From the text:
MLM Stability Pooled MLM from male CD-1 mice (BIOIVT M00501) were used.

Data set [4] is described as follows: in vitro. The data set is classed as in vitro ADME, rat. The settings on record: RLM (male Sprague-Dawley) 0.50 mg/mL, NADPH 1 mM, 1 μM compound, pH 7.4, 37° C., 60 min; for microsomal CLint / half-life: rat, microsomes; for microsomal CLint: read-out: Intrinsic clearance (Clint); for half-life: read-out: half-life (t1/2). The text has this: RLM Stability Pooled RLM from male Sprague-Dawley rats (Xenotech R1000) were used.

Data set [5] has as its target T4, 5-HT2A receptor. Nature of the data set: cell-based. Details: expressed in transfected cells; host or cells: HEK293, stably transfected. The settings on record: Ca2+ flux; for Emax: HEK293, agonist, HEK293, max dose, read-out: 5-HT2A % Act @ Max Dose; for EC50: agonist, HEK293. The data set is classed as cell-based. The method in brief: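 Using HEK293 lines for the 5-HT2 subtypes and Gα15-coupled CHO cells for 5-HT1A, compounds were tested as agonists. Fluorescent Ca2+ signal followed dye loading (Fluo-4 Direct, 2.5 mM final probenecid, 50 min, 37 °C).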

The target of data set [6] is T4, 5-HT2A receptor. Nature of the data set: biochemical. The format is binding. Set-up: expressed in transfected cells; host or cells: HEK293, stably transfected. The settings on record: [3H]ketanserin 1 nM; HEK293 stable cell line; 1 h, 25 °C. Summed up:
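Values reflect [^3H]ketanserin binding competition. Assay conditions were adapted from the literature.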

What is called EC50 is the midpoint of the concentration-response curve. For orientation: Ki means a dissociation constant, usually derived from enzyme kinetics or from competition with a known ligand.

Where two headings read alike, the source gives them in different places. Where only a bound is given, the exact number is not on record here.

T4 sequence (P28223 whole entry, the tested form may be a part): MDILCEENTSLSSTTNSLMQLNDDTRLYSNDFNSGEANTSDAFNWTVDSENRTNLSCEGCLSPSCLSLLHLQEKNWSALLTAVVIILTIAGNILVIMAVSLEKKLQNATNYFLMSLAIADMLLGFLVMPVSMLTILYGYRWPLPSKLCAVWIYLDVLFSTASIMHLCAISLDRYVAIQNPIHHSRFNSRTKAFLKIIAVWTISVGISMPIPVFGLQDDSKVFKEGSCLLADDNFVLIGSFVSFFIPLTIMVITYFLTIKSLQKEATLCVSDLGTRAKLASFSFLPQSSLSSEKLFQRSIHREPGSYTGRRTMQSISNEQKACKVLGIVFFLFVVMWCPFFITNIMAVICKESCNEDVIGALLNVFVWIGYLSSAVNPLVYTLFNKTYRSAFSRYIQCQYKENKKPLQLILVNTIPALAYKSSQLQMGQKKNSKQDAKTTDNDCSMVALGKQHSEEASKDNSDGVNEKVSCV
T1 sequence (P41595 whole entry): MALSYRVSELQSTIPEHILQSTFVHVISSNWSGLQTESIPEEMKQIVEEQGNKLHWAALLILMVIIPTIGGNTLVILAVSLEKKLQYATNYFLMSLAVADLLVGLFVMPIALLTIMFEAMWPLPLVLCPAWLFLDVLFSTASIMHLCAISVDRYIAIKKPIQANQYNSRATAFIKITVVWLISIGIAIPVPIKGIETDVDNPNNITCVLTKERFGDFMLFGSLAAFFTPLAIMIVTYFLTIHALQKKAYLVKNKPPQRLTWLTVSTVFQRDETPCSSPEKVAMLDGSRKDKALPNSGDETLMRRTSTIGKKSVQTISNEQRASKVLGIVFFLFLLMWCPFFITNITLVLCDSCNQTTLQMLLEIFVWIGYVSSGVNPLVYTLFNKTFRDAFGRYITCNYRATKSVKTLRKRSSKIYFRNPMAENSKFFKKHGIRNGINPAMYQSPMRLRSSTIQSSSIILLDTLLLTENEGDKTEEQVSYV

For `CC[C@@H](C)NC(=O)[C@H]1C=C2c3cccc4[nH]cc(c34)C[C@H]2N(CC)C1` [Compound 5a, (6aR,9S)—N—((R)-sec-butyl)-7-ethyl-4,6,6a,7,8,9-hexahydroindolo[4,3-fg]quinoline-9-carboxamide], the Emax was 43.7% at 5-HT2B receptor; 99.4% at 5-HT2C receptor; 112% at 5-HT1A receptor; 62.4% on 5-HT2A receptor [1]; 89.6% at 5-HT2A receptor [5]. The “half-life (t1/2)” value was 5.5 min in the data set “in vitro [2]”, 1.7 min in “in vitro [3]” and 3.1 min in the data set “in vitro [4]”.

Take `C=CCN1C[C@@H](C(=O)N[C@H](C)CC)C=C2c3cccc4[nH]cc(c34)C[C@H]21` [Compound 8a, (6aR,9S)-7-allyl-N—((R)-sec-butyl)-4,6,6a,7,8,9-hexahydroindolo[4,3-fg]quinoline-9-carboxamide]: the Emax was determined as 35.7% on 5-HT2B receptor; 13.3% on 5-HT2C receptor; 90.3% at 5-HT1A receptor; 81.1% at 5-HT2A receptor [1]; 87.5% at 5-HT2A receptor [5]. Also, the “half-life (t1/2)” value stood at 3.4 min in “in vitro [2]”, 0.8 min in the data set “in vitro [3]” and 1.7 min in “in vitro [4]”.

Turning to `CCN(CC)C(=O)[C@@H]1C=C2c3cccc4[nH]cc(c34)C[C@H]2N(Cc2cccc(F)c2)C1` [Compound 52, (6aR,9R)—N,N-diethyl-7-(3-fluorobenzyl)-4,6,6a,7,8,9-hexahydroindolo[4,3-fg]quinoline-9-carboxamide], the Emax at 5-HT2B receptor amounted to 4.22%; at 5-HT2C receptor it was 14.5%; at 5-HT1A receptor it was 93%; on 5-HT2A receptor [5], 81.7%. In addition, the 50% effective concentration (EC50) on 5-HT2B receptor was above 10000 nM; on 5-HT2C receptor, above 10000 nM; at 5-HT1A receptor, 7990 nM; on 5-HT2A receptor [5], 469 nM. Also, the values for the microsomal CLint in the data set “in vitro [2]”, in “in vitro [3]” and in “in vitro [4]” were 77.9 µL/min/mg, 338 µL/min/mg and 302 µL/min/mg, respectively. Also, the half-life amounted to 17.8 min in “in vitro [2]”, 4.1 min in the data set “in vitro [3]” and 4.6 min in the data set “in vitro [4]”. In addition, on 5-HT2A receptor [6], the Ki came to 5.39 nM.

Turning to `CCN(CC)C(=O)[C@@H]1C=C2c3cccc4[nH]cc(c34)C[C@H]2N(Cc2ccc(F)c(F)c2)C1` [Compound 54, (6aR,9R)-7-(3,4-difluorobenzyl)-N,N-diethyl-4,6,6a,7,8,9-hexahydroindolo[4,3-fg]quinoline-9-carboxamide], the Emax is 0.91% at 5-HT2B receptor, 8.36% at 5-HT2C receptor, 51% on 5-HT1A receptor and 59.2% on 5-HT2A receptor [5]. Further, the EC50 on 5-HT2B receptor was above 10000 nM; at 5-HT2C receptor, above 10000 nM; on 5-HT1A receptor, above 100000 nM; on 5-HT2A receptor [5], 1870 nM. Besides, the figures for the microsomal CLint in the data set “in vitro [2]”, in “in vitro [3]” and in the data set “in vitro [4]” were 73.9 µL/min/mg, 242 µL/min/mg and 110 µL/min/mg, respectively. Moreover, the half-life in “in vitro [2]” amounted to 18.7 min; in “in vitro [3]”, 5.7 min; in “in vitro [4]”, 12.6 min. Besides, at 5-HT2A receptor [6], the Ki was determined as 5.4 nM.

Regarding `CCN(CC)C(=O)[C@@H]1C=C2c3cccc4[nH]cc(c34)C[C@H]2N(Cc2ccc(C)cc2)C1` [Compound 97, (6aR,9R)—N,N-diethyl-7-(4-methylbenzyl)-4,6,6a,7,8,9-hexahydroindolo[4,3-fg]quinoline-9-carboxamide], the EC50 at 5-HT2B receptor was 16.6 nM; at 5-HT2C receptor, 4.06 nM; on 5-HT1A receptor it was above 100000 nM; at 5-HT2A receptor [5], 23.1 nM. Also, the Emax on 5-HT1A receptor stood at 84.5%. Also, the values for the microsomal CLint in “in vitro [2]”, in the data set “in vitro [3]” and in “in vitro [4]” were 63.5 µL/min/mg, 511 µL/min/mg and 532 µL/min/mg, respectively. In addition, the half-life in “in vitro [2]” came to 21.8 min; in “in vitro [3]”, 2.7 min; in “in vitro [4]”, 2.6 min. In addition, the inhibition constant (Ki) on 5-HT2A receptor [6] came out at 23.1 nM.

The values above are taken from patent US20260317319A1, “NOVEL ERGOLINES AND METHODS OF TREATING MOOD DISORDERS” (Gilgamesh Pharma Inc., priority 2023, published 2026).
